Where two headings read alike, the source gives them in different places.
What was measured:
HIV-1 protease (Q7S) = biological target: T1, HIV-1 protease (Q7S) (Human immunodeficiency virus type 1 group M subtype B, UniProt P04585, Q495S); experiment: HIV-1 Protease RET Assay; assay type: biochemical
T1 construct: made in house
Outline: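 Ki values came from a RET assay on refolded Q7S protease (2 nM active dimer) cleaving RE(EDANS)SQNYPIVQK(DABCYL)R at 5 μM, read at ex 340/em 490 nm. Reactions ran 12 min at 37 C in 0.1M sodium acetate pH 4.8, 1M NaCl, 5 mM DTT, 10% DMSO; curves were fit with the Morrison tight-binding equation.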

HIV-1 = experiment: Cytopathic Effect (CPE) Inhibition Assay (XTT dye reduction); assay type: cell-based
Outline: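 CEM-SS or MT-2 cells infected with HIV-1 RF or NL4–3 (moi 0.025–0.819), 2×10^4 cells/well, incubated six days with half-log compound dilutions. Viability read by XTT formazan at 450 nm; EC50 is the concentration restoring 50% of uninfected-control formazan, CC50 from uninfected treated cells, therapeutic index CC50/EC50.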

[1] = Ave. Ki (nM), RET assay, Q7S enzyme, pH 4.8, 37 C
[2] = Human immunodeficiency virus 1, 144 h, read-out: Ave CPE EC50 (mM)
[3] = Ki, table of drawn compounds, unit inferred

CC/C=C\CNC(=O)[C@H]1N(C(=O)[C@@H](O)[C@H](Cc2ccccc2)NC(=O)c2cccc(O)c2C)CSC1(C)C [Example A37, (R)-3-((2S,3S)-2-Hydroxy-3-{[1-(3-hydroxy-2-methyl-phenyl)-methanoyl]-amino}-4-phenyl-butanoyl)-5,5-dimethyl-thiazolidine-4-carboxylic acid (Z)-pent-2-enylamide]
Ki (HIV-1 protease (Q7S); [1]): 0.13 nM | EC50 (HIV-1; [2]): 161 nM | melting point: 112 to 113 °C

Cc1c(O)cccc1C(=O)N[C@@H](Cc1ccccc1)[C@H](O)C(=O)N1CSC(C)(C)[C@H]1C(=O)N[C@H](C)c1ccccc1 [Example A21, (R)-3-((2S,3S)-2-Hydroxy-3-{[1-(3-hydroxy-2-methyl-phenyl)-methanoyl]-amino}-4-phenyl-butanoyl)-5,5-dimethyl-thiazolidine-4-carboxylic acid ((R)-1-phenyl-ethyl)-amide]
Ki (HIV-1 protease (Q7S); [1]): 1.9 nM | EC50 (HIV-1; [2]): 717 nM | melting point: 114 to 115 °C

Cc1ccccc1CNC(=O)[C@H]1N(C(=O)[C@@H](O)[C@H](Cc2ccccc2)NC(=O)c2ccno2)CSC1(C)C [Example B2, Isoxazole-5-carboxylic acid {(1S,2S)-1-benzyl-3-[(R)-5,5-dimethyl-4-(2-methyl-benzylcarbamoyl)-thiazolidin-3-yl]-2-hydroxy-3-oxo-propyl}-amide]
Ki (HIV-1 protease (Q7S); [1]): 0.78 nM | EC50 (HIV-1; [2]): 369 nM | melting point: 82 to 84 °C

Cc1c(O)cccc1C(=O)N[C@@H](Cc1ccccc1)[C@H](O)C(=O)N1CSC(C)(C)[C@H]1C(=O)NCc1cccc(OC(F)(F)F)c1 [Example A25, (R)-3-((2S,3S)-2-Hydroxy-3-{[1-(3-hydroxy-2-methyl-phenyl)-methanoyl]-amino}-4-phenyl-butanoyl)-5,5-dimethyl-thiazolidine-4-carboxylic acid 3-trifluoromethoxy-benzylamide]
Ki (HIV-1 protease (Q7S); [1]): 5.8 nM | EC50 (HIV-1; [2]): 248 nM | melting point: 102 to 105 °C

CC/C=C/CNC(=O)[C@H]1N(C(=O)[C@@H](O)[C@H](Cc2ccccc2)NC(=O)c2cccc(O)c2C)CSC1(C)C [Example A36, (R)-3-((2S,3S)-2-Hydroxy-3-{[1-(3-hydroxy-2-methyl-phenyl)-methanoyl]-amino}-4-phenyl-butanoyl)-5,5-dimethyl-thiazolidine-4-carboxylic acid (E)-pent-2-enylamide]
Ki (HIV-1 protease (Q7S); [1]): 0.59 nM | EC50 (HIV-1; [2]): 519 nM | melting point: 113 to 115 °C

Cc1c(O)cccc1C(=O)N[C@@H](Cc1ccccc1)[C@H](O)C(=O)N1CSC(C)(C)[C@H]1C(=O)NCc1cccc(N(C)C)c1 [Example A39, (R)-3-((2S,3S)-2-Hydroxy-3-{[1-(3-hydroxy-2-methyl-phenyl)-methanoyl]-amino}-4-phenyl-butanoyl)-5,5-dimethyl-thiazolidine-4-carboxylic acid 3-dimethylamino-benzylamide]
Ki (HIV-1 protease (Q7S); [1]): 0.27 nM | EC50 (HIV-1; [2]): 367 nM | melting point: 105 to 106 °C

Cc1ccccc1CNC(=O)[C@H]1N(C(=O)[C@@H](O)[C@H](Cc2ccccc2)NC(=O)c2ccsc2)CSC1(C)C [Example B6, (R)-3-{(2S,3S)-2-Hydroxy-4-phenyl-3-[(1-thiophen-3-yl-methanoyl)-amino]-butanoyl}-5,5-dimethyl-thiazolidine-4-carboxylic acid 2-methyl-benzylamide]
Ki (HIV-1 protease (Q7S); [1]): 1.6 nM | EC50 (HIV-1; [2]): 589 nM | melting point: 98 to 100 °C

C=CCNC(=O)[C@H]1N(C(=O)[C@@H](O)[C@H](Cc2ccccc2)NC(=O)c2cccc(O)c2C)CSC1(C)C
melting point: 173 to 175 °C

Cc1ccccc1CNC(=O)[C@H]1N(C(=O)[C@@H](O)[C@H](Cc2ccccc2)NC(=O)c2cccs2)CSC1(C)C [Example B5, (R)-3-{(2S,3S)-2-Hydroxy-4-phenyl-3-[(1-thiophen-2-yl-methanoyl)-amino]-butanoyl}-5,5-dimethyl-thiazolidine-4-carboxylic acid 2-methyl-benzylamide]
Ki (HIV-1 protease (Q7S); [1]): 1.6 nM | EC50 (HIV-1; [2]): 508 nM | melting point: 98 to 101 °C

COc1ccccc1CNC(=O)[C@H]1N(C(=O)C(O)C(Cc2ccccc2)NC(=O)c2cccc(O)c2C)CSC1(C)C (stereo partly drawn) [Example A3, (R)-3-(2-Hydroxy-3-{[1-(3-hydroxy-2-methyl-phenyl)-methanoyl]-amino}-4-phenyl-butanoyl)-5,5-dimethyl-thiazolidine-4-carboxylic acid 2-methoxy-benzylamide]
Ki (HIV-1 protease (Q7S); [1]): 1.7 nM | EC50 (HIV-1; [2]): 370 nM | melting point: 123 to 125 °C

Cc1ccccc1CNC(=O)[C@H]1N(C(=O)[C@@H](O)[C@H](Cc2ccccc2)NC(=O)[C@@H]2CCCO2)CSC1(C)C [Example B7, (R)-3-{(2S,3S)-2-Hydroxy-4-phenyl-3-[((S)-1-tetrahydro-furan-2-yl-methanoyl)-amino]-butanoyl}-5,5-dimethyl-thiazolidine-4-carboxylic acid 2-methyl-benzylamide]
Ki (HIV-1 protease (Q7S); [1]): 1.9 nM | EC50 (HIV-1; [2]): 680 nM | melting point: 82 to 84 °C

Cc1c(O)cccc1C(=O)N[C@@H](Cc1ccccc1)[C@H](O)C(=O)N1CSC(C)(C)[C@H]1C(=O)NCc1ccc(N)cc1 [Example A16, (R)-3-((2S,3S)-2-Hydroxy-3-{[1-(3-hydroxy-2-methyl-phenyl)-methanoyl]-amino}-4-phenyl-butanoyl)-5,5-dimethyl-thiazolidine-4-carboxylic acid 4-amino-benzylamide]
Ki (HIV-1 protease (Q7S); [1]): 0.63 nM | EC50 (HIV-1; [2]): 134 nM | melting point: 107 to 109 °C

Cc1ccc(F)cc1CNC(=O)[C@H]1N(C(=O)[C@@H](O)[C@H](Cc2ccccc2)NC(=O)c2cccc(O)c2C)COC1(C)C [Example C9, (S)-3-((2S,3S)-2-Hydroxy-3-{[1-(3-hydroxy-2-methyl-phenyl)-methanoyl]-amino}-4-phenyl-butanoyl)-5,5-dimethyl-oxazolidine-4-carboxylic acid 5-fluoro-2-methyl-benzylamide]
Ki (HIV-1 protease (Q7S); [1]): 0.34 nM | EC50 (HIV-1; [2]): 233 nM

Cn1cccc1C(=O)N[C@@H](Cc1ccccc1)[C@H](O)C(=O)N1CSC(C)(C)[C@H]1C(=O)NCc1ccccc1Cl [Example B22, 3-{2-Hydroxy-3-[(1-methyl-1H-pyrrole-2-carbonyl)-amino]-4-phenyl-butyryl}-5,5-dimethyl-thiazolidine-4-carboxylic acid 2-chloro-benzylamide]
Ki (HIV-1 protease (Q7S); [1]): 1.8 nM | EC50 (HIV-1; [2]): 1610 nM

Cc1ccc(C(=O)N[C@@H](Cc2ccccc2)[C@H](O)C(=O)N2CSC(C)(C)[C@H]2C(=O)CCC(F)(F)F)c(C)c1O
Ki (HIV-1 protease (Q7S); [3]): 9.6 nM | EC50 (HIV-1; Human immunodeficiency virus 1): 723 nM

Cc1ccccc1CNC(=O)[C@H]1N(C(=O)[C@@H](O)[C@H](Cc2ccccc2)NC(=O)c2c[nH]cn2)CSC1(C)C
Ki (HIV-1 protease (Q7S); [3]): 55.8 nM | EC50 (HIV-1; Human immunodeficiency virus 1): ≥ 10000 nM

Cc1c(O)cccc1C(=O)NC(Cc1ccccc1)C(O)C(=O)N1CSC(C)(C)C1C(=O)NCc1cccc(C(F)(F)F)c1 (stereo not shown) [Example A4, 3-(2-Hydroxy-3-{[1-(3-hydroxy-2-methyl-phenyl)-methanoyl]-amino}-4-phenyl-butanoyl)-5,5-dimethyl-thiazolidine-4-carboxylic acid 3-trifluoromethyl-benzylamide]
Ki (HIV-1 protease (Q7S); [1]): 4.1 nM | EC50 (HIV-1; [2]): 591 nM | melting point: 108 to 110 °C

Cc1c(Cl)cccc1CNC(=O)[C@H]1N(C(=O)[C@@H](O)[C@H](Cc2ccccc2)NC(=O)c2cccc(O)c2C)CSC1(C)C
Ki (HIV-1 protease (Q7S); [3]): 0.2 nM | EC50 (HIV-1; Human immunodeficiency virus 1): 113 nM

C=CCNC(=O)[C@H]1N(C(=O)[C@@H](O)[C@H](Cc2ccccc2)NC(=O)c2ccc(C)c(O)c2C)CSC1(C)C [Example B20, (R)-3-((2S,3S)-2-Hydroxy-3-{[1-(3-hydroxy-2,4-dimethyl-phenyl)-methanoyl]-amino}-4-phenyl-butanoyl)-5,5-dimethyl-thiazolidine-4-carboxylic acid allylamide]
Ki (HIV-1 protease (Q7S); [1]): 2.1 nM | EC50 (HIV-1; [2]): 427 nM

Cc1ccccc1CN(CCO)C(=O)[C@H]1N(C(=O)[C@@H](O)[C@H](Cc2ccccc2)NC(=O)c2cccc(O)c2C)CSC1(C)C [Example A50, (R)-3-((2S,3S)-2-Hydroxy-3-{[1-(3-hydroxy-2-methyl-phenyl)-methanoyl]-amino}-4-phenyl-butanoyl)-5,5-dimethyl-thiazolidine-4-carboxylic acid (2-hydroxy-ethyl)-(2-methyl-benzyl)-amide]
Ki (HIV-1 protease (Q7S); [1]): 0.26 nM | EC50 (HIV-1; [2]): 224 nM

Cc1cc(C(=O)N[C@@H](Cc2ccccc2)[C@H](O)C(=O)N2CSC(C)(C)[C@H]2C(=O)NCc2ccccc2C)no1
Ki (HIV-1 protease (Q7S); [3]): 2.6 nM | EC50 (HIV-1; Human immunodeficiency virus 1): 1310 nM

Cc1ccccc1CNC(=O)[C@H]1N(C(=O)[C@@H](O)[C@H](Cc2ccccc2)NC(=O)N2CCSC2)CSC1(C)C
Ki (HIV-1 protease (Q7S); [3]): 14 nM | EC50 (HIV-1; Human immunodeficiency virus 1): 1510 nM

Cc1ccccc1CNC(=O)[C@H]1N(C(=O)[C@@H](O)[C@H](Cc2ccccc2)NC(=O)c2ccc(F)cc2C)CSC1(C)C [Example B37, (R)-3-((2S,3S)-3-{[1-(4-Fluoro-2-methyl-phenyl)-methanoyl]-amino}-2-hydroxy-4-phenyl-butanoyl)-5,5-dimethyl-thiazolidine-4-carboxylic acid 2-methyl-benzylamide]
Ki (HIV-1 protease (Q7S); [1]): 0.11 nM | EC50 (HIV-1; [2]): 736 nM

Cc1cccc(CNC(=O)[C@H]2N(C(=O)[C@@H](O)[C@H](Cc3ccccc3)NC(=O)c3cccc(O)c3C)CSC2(C)C)c1
Ki (HIV-1 protease (Q7S); [3]): 1.5 nM | EC50 (HIV-1; Human immunodeficiency virus 1): 76 nM

Cc1c(O)cccc1C(=O)N[C@@H](Cc1ccccc1)[C@H](O)C(=O)N1CSC(C)(C)[C@H]1C(=O)NCc1cccc(OCC(C)C)c1
Ki (HIV-1 protease (Q7S); [3]): 1.1 nM | EC50 (HIV-1; Human immunodeficiency virus 1): 1110 nM

From patent US7169932B2 (priority 2001, dated 2007)
